Results on six molecules are retold here after DBAASP.

Test systems include Escherichia coli BW25113; Escherichia coli J2210; Escherichia coli JJ2489; Escherichia coli JW0013; Escherichia coli MC1041; Escherichia coli MG1655; Vibrio cholerae; Escherichia coli UB1005; Escherichia coli; Staphylococcus aureus.
Common to all, as to experiment: ≥ marks a high value that may be exact or a test limit, other limits are often not marked, values filed in µg/mL are converted to µM
The test system of assay [1] is Escherichia coli JW0368 ΔsbmA.
Assay [2] has as its system Escherichia coli JW2778 ΔygdD.
For assay [3], the system named is Salmonella enterica subsp. enterica serovar Enteritidis MH91989.
The subject of assay [4] is Salmonella typhimurium SL1344.
Assay [5] concerns Escherichia coli CMCC 44102.
For assay [6], the system named is Pseudomonas aeruginosa ATCC 27853.
The test system of assay [7] is Staphylococcus aureus CMCC 26003.
Assay [8] concerns Staphylococcus epidermidis ATCC 12228.
Assay [9] relates to Bacillus subtilis MTCC 14416.
The test system of assay [10] is Enterococcus faecalis ATCC 29212.
Assay [11] has as its system Staphylococcus aureus ATCC 43300.
Assay [12] concerns Staphylococcus aureus MTCC 9542.
For assay [13], the system named is Escherichia coli KCTC 2223.
Assay [14] relates to Micrococcus luteus ATCC 10240.
Assay [15] has as its system Salmonella typhimurium KCTC 2370.
Assay [16] concerns Staphylococcus aureus ATCC 15752.
The subject of assay [17] is Bacillus cereus CMCC 6303.
Assay [18] concerns Cronobacter sakazakii ATCC 29544.
Assay [19] concerns Listeria monocytogenes CMCC 54004.
The subject of assay [20] is Salmonella enterica subsp. enterica CMCC 47020.
In assay [21] the test system is Salmonella enterica subsp. enterica serovar Pullorum C79-13.
Assay [22] deals with Salmonella enterica subsp. enterica serovar Typhi CMCC 50071.
The test system of assay [23] is Salmonella enterica subsp. enterica serovar Typhimurium ATCC 14028.
The subject of assay [24] is Salmonella enterica subsp. enterica serovar Typhimurium C77-31.
The test system of assay [25] is Staphylococcus aureus ATCC 25923.
Assay [26] concerns Staphylococcus aureus CMCC 26074.
The subject of assay [27] is Candida albicans ATCC 24433.
For assay [28], the system named is Candida parapsilosis ATCC 22019.
Assay [29] has as its system Trichophyton rubrum ATCC 28189.

In brackets after ≈: the same amount, converted by molar mass. Bounds are passed on as bounds.

As usually defined, the MIC is the least concentration at which growth counts as inhibited. The low end stands for inhibition by little substance, the high end for a need for much substance. As to `CC[C@H](C)[C@H](NC(=O)[C@H](Cc1ccc(O)cc1)NC(=O)[C@@H](NC(=O)[C@@H]1CCCN1C(=O)[C@H](CCCCN)NC(=O)[C@H](CC(N)=O)NC(=O)[C@H](CC(N)=O)NC(=O)CN)C(C)C)C(=O)N1CCC[C@H]1C(=O)N[C@@H](CCC(N)=O)C(=O)N1CCC[C@H]1C(=O)N[C@@H](CCCN=C(N)N)C(=O)N1CCC[C@H]1C(=O)N1CCC[C@H]1C(=O)N[C@@H](CCCN=C(N)N)C(=O)N1CCC[C@H]1C(=O)N[C@@H](CCCN=C(N)N)C(=O)N[C@@H](CC(C)C)C(=O)O` [GNNKPVYIPQPRPPRPRL], the MIC in the assay with Escherichia coli BW25113 is 0.048 µM (≈ 0.101 µg/mL); in the assay with Escherichia coli J2210, 0.133 µM (≈ 0.279 µg/mL); with Escherichia coli JJ2489, 0.067 µM (≈ 0.141 µg/mL); in the assay with Escherichia coli JW0013, 0.048 µM (≈ 0.101 µg/mL); in assay [1], 0.384 µM (≈ 0.806 µg/mL); in assay [2], 0.096 µM (≈ 0.202 µg/mL). Besides, the MIC in the assay on Escherichia coli MC1041 amounted to 0.096 µM (≈ 0.202 µg/mL); in [3], 0.067 µM (≈ 0.141 µg/mL); in assay [4] it was 0.126 µM (≈ 0.265 µg/mL).

On to `CC[C@H](C)[C@H](NC(=O)[C@H](CCCN=C(N)N)NC(=O)[C@H](CCCN=C(N)N)NC(=O)[C@H](CC(C)C)NC(=O)[C@H](Cc1ccccc1)NC(=O)[C@@H]1CCCN1C(=O)[C@H](CCCN=C(N)N)NC(=O)[C@H](CCSC)NC(=O)[C@@H](NC(=O)[C@H](CCCCN)NC(=O)[C@H](CCCCN)NC(=O)[C@H](CS)NC(=O)[C@@H](NC(=O)CNC(=O)[C@H](CCCN=C(N)N)NC(=O)[C@H](CC(C)C)NC(=O)[C@@H](NC(=O)[C@@H](N)CCCCN)[C@@H](C)CC)C(C)C)[C@@H](C)CC)C(=O)N[C@@H](CO)C(=O)N[C@@H](CCCCN)C(=O)N[C@@H](CC(=O)O)C(=O)N[C@H](C(=O)N[C@@H](CC(C)C)C(=O)N[C@H](C(=O)NCC(=O)N[C@@H](CCCCN)C(=O)N[C@@H](CCCCN)C(N)=O)[C@@H](C)O)[C@@H](C)CC` [KILRGVCKKIMRPFLRRISKDILTGKK], for which the MIC is 4 µM (≈ 12.8 µg/mL) in assay [5], 16 µM (≈ 51.2 µg/mL) in assay [6], 4 µM (≈ 12.8 µg/mL) in assay [7] and 4 µM (≈ 12.8 µg/mL) in assay [8].

`CC[C@H](C)[C@@H]1NC(=O)[C@H](CCCCN)NC(=O)[C@@H](NC(=O)[C@H](CC(C)C)NC(=O)[C@@H](NC(=O)[C@H](CCC(N)=O)NC(=O)[C@@H]2CCCN2C(=O)[C@H](CC(C)C)NC(=O)[C@H](Cc2ccccc2)NC(=O)[C@H](CC(N)=O)NC(=O)[C@H](C)NC(=O)[C@H](C)NC(=O)[C@@H](N)CC(C)C)[C@@H](C)CC)CSSC[C@@H](C(N)=O)NC(=O)[C@H](CCCCN)NC(=O)[C@H](CCCN=C(N)N)NC(=O)[C@H](C)NC1=O` [LAANFLPQILCKIARKC]: the MIC in [9] was 26.3 µM (≈ 49.9 µg/mL); in [10] it was 52.6 µM (≈ 99.8 µg/mL); in the assay with Escherichia coli MG1655 it was 6.57 µM (≈ 12.5 µg/mL); in [6] it was above 52.6 µM; in assay [11] it was 26.3 µM (≈ 49.9 µg/mL); in assay [12], 3.23 µM (≈ 6.14 µg/mL). In the assay with Vibrio cholerae, this molecule had an MIC of 6.57 µM (≈ 12.5 µg/mL).

With `CC(C)C[C@H](NC(=O)[C@H](CCCCN)NC(=O)[C@H](CCC(N)=O)NC(=O)[C@H](CCCCN)NC(=O)[C@H](CC(C)C)NC(=O)[C@H](CC(C)C)NC(=O)[C@H](CCC(N)=O)NC(=O)[C@H](CC(C)C)NC(=O)[C@H](CC(C)C)NC(=O)[C@@H]1CCCN1C(=O)[C@H](CCCN=C(N)N)NC(=O)[C@H](CC(C)C)NC(=O)[C@H](CC(C)C)NC(=O)[C@H](CCCN=C(N)N)NC(=O)CNC(=O)CNC(=O)CNC(=O)[C@@H]1CCCN1C(=O)[C@@H]1CCCN1C(=O)CNC(=O)[C@H](CCCN=C(N)N)NC(=O)[C@@H](NC(=O)[C@H](CCCCN)NC(=O)[C@@H](N)CCCN=C(N)N)C(C)C)C(=O)N[C@@H](CCCN=C(N)N)C(=O)O` [RKVRGPPGGGRLLRPLLQLLKQKLR], the MIC in [13] is 2 µM (≈ 5.7 µg/mL); in [14], 0.5 µM (≈ 1.43 µg/mL); in assay [15], 4 µM (≈ 11.4 µg/mL); in assay [16], 2 µM (≈ 5.7 µg/mL).

On to `CC[C@H](C)[C@H](NC(=O)[C@H](CCCN=C(N)N)NC(=O)[C@H](Cc1c[nH]c2ccccc12)NC(=O)[C@H](CCCCN)NC(=O)[C@@H](N)CCCN=C(N)N)C(=O)N[C@H](C(=O)N[C@H](C(=O)N[C@H](C(=O)N[C@@H](CCCN=C(N)N)C(=O)N[C@H](C(=O)N[C@@H](CCCN=C(N)N)C(=O)N[C@@H](CCCN=C(N)N)C(N)=O)C(C)C)[C@@H](C)CC)C(C)C)C(C)C` [RKWRIVVIRVRR], for which the MIC was 16 µM (≈ 26.2 µg/mL) in [17]; at least 32 µM in assay [18]; 8 µM (≈ 13.1 µg/mL) against Escherichia coli UB1005; 2 µM (≈ 3.27 µg/mL) in assay [19]; at least 64 µM in assay [20]; 8 µM (≈ 13.1 µg/mL) in assay [21]. Moreover, the MIC in [22] is 8 µM (≈ 13.1 µg/mL); in [23], 32 µM (≈ 52.4 µg/mL); in [24], at least 32 µM; in assay [25] it was 128 µM (≈ 209 µg/mL); in assay [26], at least 256 µM.

In the case of `CC[C@H](C)[C@H](NC(=O)[C@H](CCC(=O)O)NC(=O)[C@H](CO)NC(=O)[C@H](CCCN=C(N)N)NC(=O)[C@@H](N)CO)C(=O)N[C@H](C(=O)N[C@@H](CCC(N)=O)C(=O)N[C@@H](CCCN=C(N)N)C(=O)N[C@@H](CC(C)C)C(=O)N[C@@H](Cc1ccccc1)C(N)=O)C(C)C` [SRSEIVQRLF], the MIC is at least 324 µM in [27]; at least 324 µM in [28]; above 324 µM in the assay with Escherichia coli; above 324 µM with Staphylococcus aureus; at least 324 µM in [29].
